Assay results as given in patent publication US20260345584A1, “METHODS AND PHARMACEUTICAL COMPOSITIONS FOR TREATING CHEMOTHERAPY-INDUCED PERIPHERAL NEUROPATHY WITH EG5 INHIBITORS” (UNIVERSITY OF MIAMI, priority 2023, published 2026).

How the values were obtained:
[1] = system: axonal microtubules; assay: Axonal detyrosination (GluTub) along axon segments in distal caudal fin; type: in vivo, zebrafish; conditions: EMD534085 alone, wildtype, 96 hr
Description: Larval fish were transferred into […] glass vials and fixed in 4% paraformaldehyde (PFA)/1× Phosphate-buffered saline (PBS) for 1.5 hr at room temperature, with gentle rocking. Following a 5-minute incubation in 1×PBS+0.1% Tween-20 (PBST), zebrafish were permeabilized in 1×PBS+0.1% Triton X-100 for 10-30 min. Larval fish were transferred into 2 ml reaction tubes and incubated in blocking buffer (1×PBST+5% BSA) for 30 min at room temperature, with rocking. Larval fish were further incubated overnight in antibody solution (Millipore Sigma, Cat. No. AB3201, 1:300 rabbit anti-GluTub; Sigma, Cat No. T6793, 1:500 mouse anti-acetylated tubulin) in blocking buffer at 4 °C, on a rotator. The next morning, larval fish were transferred into 6-well plates and washed 4×15 min in 1×PBST at room temperature, with rocking. […]
Axon branch number quantifications were performed by drawing a 50 μm line across the dorsal, medial, and ventral caudal fin edge region at a distance of 100 μm parallel to the fin edge (which was determined to be the most reliable region to quantify distal branch numbers). Axons traversing this line were counted and averaged per treatment group. Axonal fluorescence measurements were taken using the Imaris Spots function by manually placing spots along the axon and using the fluorescence intensity profile measurements MatLab tool.

[2] = system: peripheral neuropathy; assay: von Frey behavioral testing; type: in vivo, mouse; conditions: mice, 2 mg/kg paclitaxel i.p. x4
Text: Molecular mechanisms underlying paclitaxel-induced microtubule fasciculation were then investigated. […] Peripheral neuropathy was correlated with these times points using von Frey behavioral testing, which determined that peak neuropathy was present at day 7 (D7). This identified several biological categories during peak neuropathy with the largest clusters being implicated in extracellular matrix organization (e.g. “ECM”, “collagen-containing ECM”, “collagen trimer”) and cell cycle regulation (e.g. “outer kinetochore”, “kinesin complex”, condensed chromosome, centromeric region”, “mitotic spindle”, “microtubules”), consistent with our findings in zebrafish. Interactome analysis using STRING (Szklarczyk et al., 2021, Nucl. Acids Res 49: D605-D612) to predict protein association networks further identified major clusters involved in cell cycle regulation, which contained various kinesins, microtubule and nucleus regulators, as well as one cluster annotated as “disulfide bond”, consistent with a role for oxidative signal activation (Leonard et al., 2011, Current opinion in chemical biology 15: 88-102) (shown in FIG. 3D).

[3] = system: Eg5; assay: Eg5 / phospho-Eg5 staining in mouse skin; type: in vivo; conditions: single injection, 20 mg/kg; basal and suprabasal keratinocytes
Description: The mice in each cage were randomly allocated to different treatment groups. Food and water were available ad libitum and experiments were performed during the light cycle (7:00 am to 7:00 pm). Animals were euthanized via CO2 asphyxiation, followed by cervical dislocation. […] The animal's husbandry conformed with established NIH and Institutional Animal Care and Use Committee (IACUC) approved protocols.
Paws and back skin were collected at predetermined time points, placed in 10% formalin, and stored overnight at 4 °C. Samples were embedded in paraffin and sectioned at 7 μm, deparaffinized, washed with PBS, and incubated at room temperature for 5 min in 0.1% Triton X-100 in PBS and then blocked for 30 min (5% BSA). Sections were incubated with primary antibody diluted in blocking solution, overnight at 4 °C in a humidity chamber. Following PBS washes, sections were incubated for 1 h at room temperature with a secondary antibody. Tissues were mounted and assessed for staining. Antibodies used were against detyrosinated tubulin Millipore AB3201, p-KIF11 Invitrogen PA5-38647, alpha-tubulin Proteintech 66031-1-Ig, mouse Alexa Fluor 488 Invitrogen A21202, and rabbit Alexa flour 546 Invitrogen A10040. DAPI was used for nuclei counterstaining. […]

day of peak neuropathy [2] [days] | SMILES | normalized GluTub intensity ratios (axon) [1] | total and phospho-Eg5 levels [3]
– | CN(C)CCNC(=O)NC[C@H]1CC[C@@H]2[C@H](O1)c1cc(C(F)(F)F)ccc1N[C@H]2c1ccccc1 [EMD534085] | 2.13±0.13 | –
7 | CC(=O)O[C@H]1C(=O)[C@@]2(C)[C@H]([C@H](OC(=O)c3ccccc3)[C@]3(O)C[C@H](OC(=O)[C@H](O)[C@@H](NC(=O)c4ccccc4)c4ccccc4)C(C)=C1C3(C)C)[C@]1(OC(C)=O)CO[C@@H]1C[C@@H]2O [paclitaxel] | – | increased total and phospho-Eg5 levels
